# Patent publication EP0821954A1, “Method for treating mental retardation” (ELI LILLY AND COMPANY, priority 1996, dated 1998)
# Tests used:
# [1] = target: m4 receptors (Homo sapiens, UniProt P08173); format: cell-based; settings: CHO m4 cells treated with pertussis toxin
# [2] = target: T1, 5HT2C (Homo sapiens, UniProt P28335); test: 5HT2C receptor affinity; format: binding; settings: 5HT2C receptor subtype
# T1 sequence (P28335 33-458): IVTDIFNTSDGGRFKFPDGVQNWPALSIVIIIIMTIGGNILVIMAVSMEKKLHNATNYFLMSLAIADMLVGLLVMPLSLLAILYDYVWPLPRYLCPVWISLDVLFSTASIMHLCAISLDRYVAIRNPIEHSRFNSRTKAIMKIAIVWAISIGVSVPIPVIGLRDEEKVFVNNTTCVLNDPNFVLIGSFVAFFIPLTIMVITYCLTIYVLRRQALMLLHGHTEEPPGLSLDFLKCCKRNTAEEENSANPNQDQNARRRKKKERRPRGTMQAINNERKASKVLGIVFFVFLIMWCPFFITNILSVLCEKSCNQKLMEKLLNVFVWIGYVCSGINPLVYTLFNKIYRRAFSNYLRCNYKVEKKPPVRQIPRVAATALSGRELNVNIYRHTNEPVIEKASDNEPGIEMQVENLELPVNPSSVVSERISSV
# [3] = target: muscarinic cholinergic receptors; test: 3H-oxotremorine-M binding study; settings: inhibition of binding of 3H-oxotremorine-M; read-out: inhibition costant (Ki)
# Sequence of m4 receptors (P08173 whole entry): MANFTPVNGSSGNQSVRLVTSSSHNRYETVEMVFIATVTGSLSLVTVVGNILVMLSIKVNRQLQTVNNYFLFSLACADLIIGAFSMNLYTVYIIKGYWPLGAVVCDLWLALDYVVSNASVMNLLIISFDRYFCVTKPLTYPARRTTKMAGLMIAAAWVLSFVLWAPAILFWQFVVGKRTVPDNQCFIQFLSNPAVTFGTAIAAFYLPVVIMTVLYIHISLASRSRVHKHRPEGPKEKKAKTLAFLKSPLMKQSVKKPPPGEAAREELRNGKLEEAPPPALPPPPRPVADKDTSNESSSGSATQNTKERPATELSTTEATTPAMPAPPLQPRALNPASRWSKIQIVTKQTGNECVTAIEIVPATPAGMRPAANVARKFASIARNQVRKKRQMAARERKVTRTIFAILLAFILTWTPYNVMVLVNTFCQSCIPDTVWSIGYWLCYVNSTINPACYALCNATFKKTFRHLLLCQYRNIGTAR
compound,measurement,setting,value
"CCCCCCOc1nsnc1C1=CCCN(C)C1 [Xanomeline, 3-(4-hexyloxy-1,2,5-thiadiazol-3-yl)-1,2,5,6-tetrahydro-1-methylpyridine]",formation of cAMP,[1],efficaciously and potently stimulated the formation of cAMP
same,Ki,[2],120 nM
same,Ki,[3],2 nM
